The values below come from publication PMC3192407, “Both Basic and Acidic Amino Acid Residues of IpTxa Are Involved in Triggering Substate of RyR1” (Journal of Biomedicine and Biotechnology, 2011).

The assay has as its target T1, rabbit skeletal RyR1 (native RyR1 in HSR) (Oryctolagus cuniculus, UniProt P11716).
T1 construct: tested using native RyR1 in rabbit skeletal HSR; from tissue; host or cells: rabbit fast-twitch back and leg muscles (heavy SR vesicles)
Description: Planar lipid bilayer single-channel recording, native RyR1 in HSR. It counts as biochemical. Particulars: for EC50: native RyR1 in SR, toxin cis, 6-100 nM, -30 mV, [Ca^2+]free 10 μM, pH 7.2, Hill fit, means ± SE of 3–9 experiments, read-out: EC50 for Psubstate. As to the method:
A heavy fraction of fragmented SR vesicles (HSR) containing junctional SR was prepared from rabbit fast-twitch back and leg muscles as described previously.
Single-channel recordings of rabbit skeletal RyR1 incorporated into planar lipid bilayers were carried out as described previously. Lipid bilayers, consisting of brain tissue phosphatidylethanolamine and phosphatidylserine (1 : 1) in decane (20 mg/mL) were formed across a hole of approximately 200 μm diameter. Thinning of the bilayer was monitored by bilayer capacitance. The basic composition of the cis/trans solution consisted of 300 mM cesium methanesulfonate, 10 mM Tris/Hepes (pH 7.2), 2 mM EGTA, and 1.998 mM CaCl2 ([Ca^2+]free = 10 μM). [Ca^2+]free was calculated using the “Chelator” program (Theo Schoenmaker). Cs^+ was selected as the charge carrier to ensure precise control of free [Ca^2+], to increase the channel conductance, and to avoid any contribution from potassium channels present in the SR membrane. Chloride channels were inhibited by using the impermeant anion methanesulfonate. Incorporation of ion channels was carried out as described by Miller and Racker and confirmed by recording the characteristically high single-channel conductance of RyRs. The trans side was maintained at ground and the cis side was clamped at −30 mV relative to the ground. After addition of the IpTxa to the cis chamber, the single channel data were collected at −30 mV for 2–5 min. […] Recordings were filtered with an 8-pole low-pass Bessel filter at 1 kHz and digitalized through a Digidata 1200 series interface (Axon Instruments). Data acquisition and analysis were done with the Axon Instruments software, pClamp v7.0.
Data were analyzed using the Hill equation described previously:
(1) Psubstate=(Psubstate, max )/[1+(EC50/[IpTxa])^nH] orPo=(Po, max )/[1+(EC50/[IpTxa])^nH], where (Po, max ) is the Po observed at saturating concentrations of IpTxa, EC50 is the IpTxa concentration for which 50% of Po, max is obtained and nH is the Hill coefficient. Also, Psubstate, max is the Psubstate observed at saturating concentrations of IpTxa, EC50 is the IpTxa concentration for which 50% of Psubstate, max is obtained, and nH is the Hill coefficient. The probability of full open state of the channel (Po) was defined as the ratio of the time spent in the open state to the total time exclusive of time spent in the substate. The probability to obtain substate (Psubstate) was calculated as the time spent in the substate divided by a given total recording time. The durations of the substate were obtained by manual positioning of the cursors and constructing all point histograms. Mean duration of substate was measured by total substate time divided by total substate frequencies.
Results are given as means ± SE. Significant differences were analyzed using Student's t-test. Differences were considered to be significant when P < 0.05. The fitting of the data to the graphs were carried out using the software, Origin v7.
To examine how IpTxa modifies RyR1 activity, RyR1 in HSR incorporated in planar lipid bilayers was tested in the presence or absence of synthetic wild-type IpTxa. The chamber solutions for both cis (cytosolic) and trans (luminal) sides included 300 mM cesium methanesulfonate and 10 mM Tris-Hepes (pH 7.2). 10 μM free Ca^2+ was added to the cis side to activate the incorporated RyR1. After an addition of IpTxa to the cis chamber, the single channel gating properties were recorded at a holding potential of −30 mV for over 2 min at each toxin concentration. […] To examine the effects of IpTxa on full open state, we calculated the probability to obtain the full open state (Po) as the time spent in the open state divided by the total time exclusive of the time spent in the substate. The time for recorded Po was in the range of 30 s–2 min. […] The steady-state Po was 0.18 ± 0.02 at 10 μM Ca^2+. […]

Bridge positions count the residues as written; N and C are the ends. Peptide text beside a SMILES is read from it.

T1 sequence (P11716 whole entry): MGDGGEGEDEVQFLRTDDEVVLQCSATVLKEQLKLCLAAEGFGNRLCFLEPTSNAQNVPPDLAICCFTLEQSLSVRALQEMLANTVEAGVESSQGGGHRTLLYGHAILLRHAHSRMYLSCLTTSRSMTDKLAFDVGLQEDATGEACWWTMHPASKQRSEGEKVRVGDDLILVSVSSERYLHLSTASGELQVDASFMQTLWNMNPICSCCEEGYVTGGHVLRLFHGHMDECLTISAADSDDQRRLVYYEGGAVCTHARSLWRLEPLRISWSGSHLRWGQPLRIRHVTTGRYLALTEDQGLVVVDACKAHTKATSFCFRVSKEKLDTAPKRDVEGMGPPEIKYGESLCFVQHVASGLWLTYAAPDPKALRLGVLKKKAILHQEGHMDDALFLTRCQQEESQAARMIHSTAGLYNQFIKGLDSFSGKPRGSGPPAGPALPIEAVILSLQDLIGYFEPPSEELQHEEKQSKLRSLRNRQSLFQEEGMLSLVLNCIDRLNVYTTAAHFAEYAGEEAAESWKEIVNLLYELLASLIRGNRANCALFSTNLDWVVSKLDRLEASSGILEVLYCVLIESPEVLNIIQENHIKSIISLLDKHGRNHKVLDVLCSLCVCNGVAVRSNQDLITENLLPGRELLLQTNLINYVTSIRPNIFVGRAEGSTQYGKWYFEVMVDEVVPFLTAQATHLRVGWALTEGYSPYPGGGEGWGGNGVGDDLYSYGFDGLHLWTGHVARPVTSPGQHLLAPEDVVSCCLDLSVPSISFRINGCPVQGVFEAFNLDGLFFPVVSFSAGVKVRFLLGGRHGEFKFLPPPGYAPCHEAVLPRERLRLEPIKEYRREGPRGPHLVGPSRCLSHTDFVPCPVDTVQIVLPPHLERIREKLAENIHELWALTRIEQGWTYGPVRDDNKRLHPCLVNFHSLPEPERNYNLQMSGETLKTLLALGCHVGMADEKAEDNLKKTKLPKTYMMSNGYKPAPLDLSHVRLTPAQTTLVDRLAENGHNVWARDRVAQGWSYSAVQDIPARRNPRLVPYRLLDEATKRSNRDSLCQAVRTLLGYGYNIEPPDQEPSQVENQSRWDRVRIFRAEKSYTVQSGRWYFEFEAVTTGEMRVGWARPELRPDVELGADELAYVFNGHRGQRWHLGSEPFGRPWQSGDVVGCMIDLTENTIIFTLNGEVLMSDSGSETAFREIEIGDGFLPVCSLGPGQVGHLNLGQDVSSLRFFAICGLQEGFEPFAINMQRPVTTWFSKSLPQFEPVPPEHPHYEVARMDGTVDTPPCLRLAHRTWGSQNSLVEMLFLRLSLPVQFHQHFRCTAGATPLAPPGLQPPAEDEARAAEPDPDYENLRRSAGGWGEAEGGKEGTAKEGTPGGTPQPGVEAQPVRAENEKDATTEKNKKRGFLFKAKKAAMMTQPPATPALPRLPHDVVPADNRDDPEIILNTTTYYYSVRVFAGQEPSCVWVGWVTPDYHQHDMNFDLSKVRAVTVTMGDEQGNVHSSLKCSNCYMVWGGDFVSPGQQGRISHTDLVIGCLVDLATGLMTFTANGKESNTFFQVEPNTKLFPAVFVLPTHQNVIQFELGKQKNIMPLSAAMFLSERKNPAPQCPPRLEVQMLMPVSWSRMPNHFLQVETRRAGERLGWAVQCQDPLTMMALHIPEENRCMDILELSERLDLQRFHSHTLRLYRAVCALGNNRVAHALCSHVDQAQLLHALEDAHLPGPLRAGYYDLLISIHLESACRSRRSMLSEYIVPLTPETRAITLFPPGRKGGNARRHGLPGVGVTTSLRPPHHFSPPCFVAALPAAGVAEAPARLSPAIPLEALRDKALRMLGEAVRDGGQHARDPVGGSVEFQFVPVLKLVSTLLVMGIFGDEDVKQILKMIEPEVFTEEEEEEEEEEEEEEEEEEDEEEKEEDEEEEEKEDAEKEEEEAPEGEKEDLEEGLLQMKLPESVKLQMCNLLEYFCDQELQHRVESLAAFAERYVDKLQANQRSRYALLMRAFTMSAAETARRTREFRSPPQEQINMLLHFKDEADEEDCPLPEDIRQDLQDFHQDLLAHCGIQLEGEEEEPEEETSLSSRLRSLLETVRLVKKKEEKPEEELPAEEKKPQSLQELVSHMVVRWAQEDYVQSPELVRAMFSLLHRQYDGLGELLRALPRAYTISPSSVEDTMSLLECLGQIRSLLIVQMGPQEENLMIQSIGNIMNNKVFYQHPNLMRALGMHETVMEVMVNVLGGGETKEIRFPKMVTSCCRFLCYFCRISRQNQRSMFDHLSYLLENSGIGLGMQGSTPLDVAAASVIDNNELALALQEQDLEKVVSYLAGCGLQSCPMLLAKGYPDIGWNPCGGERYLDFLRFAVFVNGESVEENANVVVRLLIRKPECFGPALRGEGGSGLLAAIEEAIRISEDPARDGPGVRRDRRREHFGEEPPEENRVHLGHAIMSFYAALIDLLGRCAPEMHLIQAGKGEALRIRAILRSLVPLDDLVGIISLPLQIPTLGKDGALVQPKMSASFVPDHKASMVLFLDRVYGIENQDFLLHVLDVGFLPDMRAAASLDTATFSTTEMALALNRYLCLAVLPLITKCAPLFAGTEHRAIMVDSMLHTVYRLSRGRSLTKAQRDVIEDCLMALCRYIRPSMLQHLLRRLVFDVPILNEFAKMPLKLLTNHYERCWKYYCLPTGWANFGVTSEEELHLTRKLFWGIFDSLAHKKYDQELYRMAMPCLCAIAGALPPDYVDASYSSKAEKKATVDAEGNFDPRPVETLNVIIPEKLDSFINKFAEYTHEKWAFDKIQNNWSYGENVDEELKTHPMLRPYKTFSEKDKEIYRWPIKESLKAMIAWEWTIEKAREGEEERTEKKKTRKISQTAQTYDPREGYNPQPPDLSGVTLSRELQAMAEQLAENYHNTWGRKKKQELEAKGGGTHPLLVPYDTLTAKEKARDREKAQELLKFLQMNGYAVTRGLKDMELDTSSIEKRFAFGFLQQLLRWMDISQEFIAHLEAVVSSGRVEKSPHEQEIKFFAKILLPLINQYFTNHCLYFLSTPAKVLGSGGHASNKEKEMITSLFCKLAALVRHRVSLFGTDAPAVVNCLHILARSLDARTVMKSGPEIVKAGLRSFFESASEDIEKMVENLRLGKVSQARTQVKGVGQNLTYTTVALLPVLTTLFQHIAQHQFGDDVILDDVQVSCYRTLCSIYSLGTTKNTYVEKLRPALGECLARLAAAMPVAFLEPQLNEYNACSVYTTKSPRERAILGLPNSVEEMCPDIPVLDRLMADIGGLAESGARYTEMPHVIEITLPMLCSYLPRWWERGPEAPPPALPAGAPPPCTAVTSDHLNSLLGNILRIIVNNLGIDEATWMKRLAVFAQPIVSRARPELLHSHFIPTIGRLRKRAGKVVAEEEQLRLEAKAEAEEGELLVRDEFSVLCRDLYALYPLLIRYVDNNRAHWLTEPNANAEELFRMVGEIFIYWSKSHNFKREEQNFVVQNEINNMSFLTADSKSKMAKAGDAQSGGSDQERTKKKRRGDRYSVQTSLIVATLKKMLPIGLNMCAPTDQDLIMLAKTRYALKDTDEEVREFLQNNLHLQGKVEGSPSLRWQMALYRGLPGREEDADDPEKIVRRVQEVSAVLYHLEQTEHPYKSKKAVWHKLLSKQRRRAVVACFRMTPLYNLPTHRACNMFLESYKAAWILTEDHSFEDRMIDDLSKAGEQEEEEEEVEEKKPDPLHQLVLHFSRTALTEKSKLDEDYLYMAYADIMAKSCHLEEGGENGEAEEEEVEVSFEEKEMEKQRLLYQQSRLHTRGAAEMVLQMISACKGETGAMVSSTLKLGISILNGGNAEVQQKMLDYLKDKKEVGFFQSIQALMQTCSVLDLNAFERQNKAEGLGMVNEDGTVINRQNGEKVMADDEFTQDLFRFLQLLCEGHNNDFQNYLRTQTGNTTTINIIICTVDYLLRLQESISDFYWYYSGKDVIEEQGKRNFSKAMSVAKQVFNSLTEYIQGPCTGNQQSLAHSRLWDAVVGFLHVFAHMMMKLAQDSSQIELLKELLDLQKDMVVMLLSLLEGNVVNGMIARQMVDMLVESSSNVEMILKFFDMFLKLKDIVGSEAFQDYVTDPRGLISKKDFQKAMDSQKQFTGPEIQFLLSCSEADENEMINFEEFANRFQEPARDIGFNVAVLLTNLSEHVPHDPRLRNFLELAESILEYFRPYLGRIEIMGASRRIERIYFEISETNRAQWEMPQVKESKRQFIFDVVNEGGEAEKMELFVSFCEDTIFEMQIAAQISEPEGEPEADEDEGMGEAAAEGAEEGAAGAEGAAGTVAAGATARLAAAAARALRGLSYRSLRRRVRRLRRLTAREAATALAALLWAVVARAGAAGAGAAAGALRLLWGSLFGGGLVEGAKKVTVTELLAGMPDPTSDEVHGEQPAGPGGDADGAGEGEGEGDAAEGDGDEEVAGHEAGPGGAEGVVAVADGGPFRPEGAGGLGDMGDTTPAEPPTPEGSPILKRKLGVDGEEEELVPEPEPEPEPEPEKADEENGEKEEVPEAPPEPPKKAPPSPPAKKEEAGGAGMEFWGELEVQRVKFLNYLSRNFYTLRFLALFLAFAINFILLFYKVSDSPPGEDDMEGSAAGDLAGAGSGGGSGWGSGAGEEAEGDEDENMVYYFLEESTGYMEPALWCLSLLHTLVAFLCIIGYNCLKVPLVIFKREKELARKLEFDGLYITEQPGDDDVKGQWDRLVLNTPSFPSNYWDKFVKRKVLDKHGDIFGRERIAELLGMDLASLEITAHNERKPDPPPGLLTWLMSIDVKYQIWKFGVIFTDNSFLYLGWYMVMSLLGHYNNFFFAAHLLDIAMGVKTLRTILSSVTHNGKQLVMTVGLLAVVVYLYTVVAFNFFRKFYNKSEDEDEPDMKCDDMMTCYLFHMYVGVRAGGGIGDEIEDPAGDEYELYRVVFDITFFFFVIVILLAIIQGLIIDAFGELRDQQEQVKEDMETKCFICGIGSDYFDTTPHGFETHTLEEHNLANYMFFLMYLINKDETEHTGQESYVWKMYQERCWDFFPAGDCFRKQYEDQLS

As usually defined, the EC50 is the midpoint of the concentration-response curve. Take `CC(C)C[C@@H]1NC(=O)[C@H](Cc2c[nH]cn2)NC(=O)[C@@H]2CCCN2C(=O)[C@H](CC(C)C)NC(=O)[C@@H](NC(=O)[C@H](CC(=O)O)NC(=O)CN)CSSC[C@@H]2NC(=O)[C@@H]3CSSC[C@@H](C(=O)N[C@@H](CCCNC(=N)N)C(=O)O)NC(=O)[C@H](CCCNC(=N)N)NC(=O)[C@H](CCCCN)NC(=O)[C@H](CCC(=O)O)NC(=O)[C@H](C)NC(=O)[C@H](CC(N)=O)NC(=O)[C@H]([C@@H](C)O)NC(=O)CNC(=O)[C@H](CCCNC(=N)N)NC(=O)[C@H](CCCNC(=N)N)NC(=O)[C@H](CCCCN)NC(=O)[C@H](CSSC[C@H](NC(=O)[C@H](CCCNC(=N)N)NC(=O)[C@H](CCCCN)NC1=O)C(=O)N[C@@H](CCCCN)C(=O)N[C@@H](C)C(=O)N[C@@H](CC(=O)O)C(=O)N[C@@H](CC(N)=O)C(=O)N[C@@H](C)C(=O)N3)NC(=O)[C@H](CCCCN)NC(=O)[C@H](CCCCN)NC(=O)CNC2=O` [D15A] (H-GDCLPHLKRCKADNACCGKKCKRRGTNAEKRCR-OH; disulfide 3-17, 10-21, 16-32): the EC50 is 21.5 ± 1.92 nM.
Still for that read-out and setting: with `CC(C)C[C@@H]1NC(=O)[C@H](Cc2c[nH]cn2)NC(=O)[C@@H]2CCCN2C(=O)[C@H](CC(C)C)NC(=O)[C@@H](NC(=O)[C@H](CC(=O)O)NC(=O)CN)CSSC[C@@H]2NC(=O)[C@@H]3CSSC[C@@H](C(=O)N[C@@H](CCCNC(=N)N)C(=O)O)NC(=O)[C@H](CCCNC(=N)N)NC(=O)[C@H](CCCCN)NC(=O)[C@H](CCC(=O)O)NC(=O)[C@H](C)NC(=O)[C@H](CC(N)=O)NC(=O)[C@H]([C@@H](C)O)NC(=O)CNC(=O)[C@H](CCCNC(=N)N)NC(=O)[C@H](CCCNC(=N)N)NC(=O)[C@H](CCCCN)NC(=O)[C@H](CSSC[C@H](NC(=O)[C@H](C)NC(=O)[C@H](CCCCN)NC1=O)C(=O)N[C@@H](CCCCN)C(=O)N[C@@H](C)C(=O)N[C@@H](CC(=O)O)C(=O)N[C@@H](CC(N)=O)C(=O)N[C@@H](CC(=O)O)C(=O)N3)NC(=O)[C@H](CCCCN)NC(=O)[C@H](CCCCN)NC(=O)CNC2=O` [R9A] (H-GDCLPHLKACKADNDCCGKKCKRRGTNAEKRCR-OH; disulfide 3-17, 10-21, 16-32) the figure was 19.9 ± 3.16 nM.
Regarding `CC(C)C[C@@H]1NC(=O)[C@H](Cc2c[nH]cn2)NC(=O)[C@@H]2CCCN2C(=O)[C@H](CC(C)C)NC(=O)[C@@H](NC(=O)[C@H](CC(=O)O)NC(=O)CN)CSSC[C@@H]2NC(=O)[C@@H]3CSSC[C@@H](C(=O)N[C@@H](CCCNC(=N)N)C(=O)O)NC(=O)[C@H](CCCNC(=N)N)NC(=O)[C@H](CCCCN)NC(=O)[C@H](CCC(=O)O)NC(=O)[C@H](C)NC(=O)[C@H](CC(N)=O)NC(=O)[C@H](C)NC(=O)CNC(=O)[C@H](CCCNC(=N)N)NC(=O)[C@H](CCCNC(=N)N)NC(=O)[C@H](CCCCN)NC(=O)[C@H](CSSC[C@H](NC(=O)[C@H](CCCNC(=N)N)NC(=O)[C@H](CCCCN)NC1=O)C(=O)N[C@@H](CCCCN)C(=O)N[C@@H](C)C(=O)N[C@@H](CC(=O)O)C(=O)N[C@@H](CC(N)=O)C(=O)N[C@@H](CC(=O)O)C(=O)N3)NC(=O)[C@H](CCCCN)NC(=O)[C@H](CCCCN)NC(=O)CNC2=O` [T26A] (H-GDCLPHLKRCKADNDCCGKKCKRRGANAEKRCR-OH; disulfide 3-17, 10-21, 16-32), the EC50 worked out at 9.98 ± 1.92 nM. Under “native RyR1 (Figure 2(b)), Figure 5(b), purified RyR1, also cited in sentence”, the “EC50 of Psubstate compared with wild type (in words)” value is listed as “dramatically decreased EC50 of Psubstate”.
`CC(C)C[C@@H]1NC(=O)[C@H](Cc2c[nH]cn2)NC(=O)[C@@H]2CCCN2C(=O)[C@H](CC(C)C)NC(=O)[C@@H](NC(=O)[C@H](CC(=O)O)NC(=O)CN)CSSC[C@@H]2NC(=O)[C@@H]3CSSC[C@@H](C(=O)N[C@@H](CCCNC(=N)N)C(=O)O)NC(=O)[C@H](CCCNC(=N)N)NC(=O)[C@H](CCCCN)NC(=O)[C@H](CCC(=O)O)NC(=O)[C@H](C)NC(=O)[C@H](CC(N)=O)NC(=O)[C@H]([C@@H](C)O)NC(=O)CNC(=O)[C@H](C)NC(=O)[C@H](CCCNC(=N)N)NC(=O)[C@H](CCCCN)NC(=O)[C@H](CSSC[C@H](NC(=O)[C@H](CCCNC(=N)N)NC(=O)[C@H](CCCCN)NC1=O)C(=O)N[C@@H](CCCCN)C(=O)N[C@@H](C)C(=O)N[C@@H](CC(=O)O)C(=O)N[C@@H](CC(N)=O)C(=O)N[C@@H](CC(=O)O)C(=O)N3)NC(=O)[C@H](CCCCN)NC(=O)[C@H](CCCCN)NC(=O)CNC2=O` [R24A] (H-GDCLPHLKRCKADNDCCGKKCKRAGTNAEKRCR-OH; disulfide 3-17, 10-21, 16-32): the EC50 is 26 ± 7.01 nM.
Same read-out and setting: with `CC(C)C[C@@H]1NC(=O)[C@H](Cc2c[nH]cn2)NC(=O)[C@@H]2CCCN2C(=O)[C@H](CC(C)C)NC(=O)[C@@H](NC(=O)[C@H](C)NC(=O)CN)CSSC[C@@H]2NC(=O)[C@@H]3CSSC[C@@H](C(=O)N[C@@H](CCCNC(=N)N)C(=O)O)NC(=O)[C@H](CCCNC(=N)N)NC(=O)[C@H](CCCCN)NC(=O)[C@H](CCC(=O)O)NC(=O)[C@H](C)NC(=O)[C@H](CC(N)=O)NC(=O)[C@H]([C@@H](C)O)NC(=O)CNC(=O)[C@H](CCCNC(=N)N)NC(=O)[C@H](CCCNC(=N)N)NC(=O)[C@H](CCCCN)NC(=O)[C@H](CSSC[C@H](NC(=O)[C@H](CCCNC(=N)N)NC(=O)[C@H](CCCCN)NC1=O)C(=O)N[C@@H](CCCCN)C(=O)N[C@@H](C)C(=O)N[C@@H](CC(=O)O)C(=O)N[C@@H](CC(N)=O)C(=O)N[C@@H](CC(=O)O)C(=O)N3)NC(=O)[C@H](CCCCN)NC(=O)[C@H](CCCCN)NC(=O)CNC2=O` [D2A] (H-GACLPHLKRCKADNDCCGKKCKRRGTNAEKRCR-OH; disulfide 3-17, 10-21, 16-32) the figure was 28.6 ± 14 nM; with `CC(C)C[C@@H]1NC(=O)[C@H](Cc2c[nH]cn2)NC(=O)[C@@H]2CCCN2C(=O)[C@H](CC(C)C)NC(=O)[C@@H](NC(=O)[C@H](CC(=O)O)NC(=O)CN)CSSC[C@@H]2NC(=O)[C@@H]3CSSC[C@@H](C(=O)N[C@@H](CCCNC(=N)N)C(=O)O)NC(=O)[C@H](CCCNC(=N)N)NC(=O)[C@H](CCCCN)NC(=O)[C@H](CCC(=O)O)NC(=O)[C@H](C)NC(=O)[C@H](CC(N)=O)NC(=O)[C@H]([C@@H](C)O)NC(=O)CNC(=O)[C@H](CCCNC(=N)N)NC(=O)[C@H](CCCNC(=N)N)NC(=O)[C@H](C)NC(=O)[C@H](CSSC[C@H](NC(=O)[C@H](CCCNC(=N)N)NC(=O)[C@H](CCCCN)NC1=O)C(=O)N[C@@H](CCCCN)C(=O)N[C@@H](C)C(=O)N[C@@H](CC(=O)O)C(=O)N[C@@H](CC(N)=O)C(=O)N[C@@H](CC(=O)O)C(=O)N3)NC(=O)[C@H](CCCCN)NC(=O)[C@H](CCCCN)NC(=O)CNC2=O` [K22A] (H-GDCLPHLKRCKADNDCCGKKCARRGTNAEKRCR-OH; disulfide 3-17, 10-21, 16-32), 18.5 ± 2.88 nM.
On the same count and under the same terms, with `CC(C)C[C@@H]1NC(=O)[C@H](Cc2c[nH]cn2)NC(=O)[C@@H]2CCCN2C(=O)[C@H](CC(C)C)NC(=O)[C@@H](NC(=O)[C@H](CC(=O)O)NC(=O)CN)CSSC[C@@H]2NC(=O)[C@@H]3CSSC[C@@H](C(=O)N[C@@H](CCCNC(=N)N)C(=O)O)NC(=O)[C@H](CCCNC(=N)N)NC(=O)[C@H](CCCCN)NC(=O)[C@H](CCC(=O)O)NC(=O)[C@H](C)NC(=O)[C@H](CC(N)=O)NC(=O)[C@H]([C@@H](C)O)NC(=O)CNC(=O)[C@H](CCCNC(=N)N)NC(=O)[C@H](C)NC(=O)[C@H](CCCCN)NC(=O)[C@H](CSSC[C@H](NC(=O)[C@H](CCCNC(=N)N)NC(=O)[C@H](CCCCN)NC1=O)C(=O)N[C@@H](CCCCN)C(=O)N[C@@H](C)C(=O)N[C@@H](CC(=O)O)C(=O)N[C@@H](CC(N)=O)C(=O)N[C@@H](CC(=O)O)C(=O)N3)NC(=O)[C@H](CCCCN)NC(=O)[C@H](CCCCN)NC(=O)CNC2=O` [R23A] (H-GDCLPHLKRCKADNDCCGKKCKARGTNAEKRCR-OH; disulfide 3-17, 10-21, 16-32) the figure was 19.5 ± 9.36 nM.
